Experiment [1] concerns Holstein Friesian cows challenged with S. aureus. As to the kind of experiment: Clinical and productive variables in cows challenged with S. aureus (induced mastitis). It is filed as in vivo.
The subject of another experiment is S. aureus. As to the kind of experiment: Bacteriological analysis (CFU) in milk of cows challenged with S. aureus. It is filed as in vivo, Staphylococcus aureus. The protocol:
1 mL of PBS was inoculated into the right quarters as a control. The NEG group (without therapy) was treated on days 4 and 10 with a 5 mL Ringer Lactate solution via the teat canal in the two infected quarters. The ATB group (antibiotic therapy) was treated with a commercial suspension of 50 mg of pirlimycin on experimental days 4 and 5 via the teat canal in the two infected quarters. The MSC group (MSC therapy) was administered with a 2.5×10^7 suspension of MSC in 3 ml of Lactated Ringer via the teat canal in the two infected quarters. From the day of the challenge and daily during 15 days, the cows were clinically evaluated and milk samples were collected daily to determine SCC and CFU (FIG. 2B). The clinical evaluation and the collection of milk samples were carried out as detailed below.
Milk samples prior to milking were collected aseptically from all cows following the protocols of the International Dairy Federation (1985) on three consecutive days prior to the experimental challenge (FIG. 2B). Briefly, before milking, the quarters and teats were cleaned using a brush or washed with water in case of excessive presence of mud or manure. Then the teats and especially the tips of the teats were disinfected using paper towels with 70% alcohol. Three or four milk streams were discarded to reduce the possibility of contamination with pathogens present in the teat canal. Each of the teats, starting with the most distant ones, were disinfected again using a 70% alcohol swab. Previously labelled sample bottles were positioned at a 45-degree angle below the nipple without touching it to prevent contamination. Nearby teats were first sampled and then distant teats, filling one third of the vial. The samples were refrigerated or frozen for analysis of SCC or CFU, respectively. Only cows with three negative consecutive cultures were used in the study. […]
From the day of the challenge and daily for 15 days, milk samples were collected for determination of CFU. The CFU values were subsequently expressed as a linear score (LS-CFU) by means of logarithmic transformation (LS=LOGN). […]

`CC[C@@H]1CCN[C@H](C(=O)N[C@@H]([C@H]2O[C@H](SC)[C@H](O)[C@@H](O)[C@H]2O)[C@H](C)Cl)C1` [ATB, pirlimycin]: in experiment [1], the “average daily milk production” value came out at 16.7±0.8 I; the “decrease in milk production between days 5 and 7” value stood at 2.1. Besides, in experiment [1] (days 5-7), the “Milk yield reduction days 5-7 (Its.)” value is given as 2.1 Its. Further, in experiment [1] (n=5 each group, mean ± SD), the “Milk yield (Its.)” value came to 16.7 ± 0.8 Its, the “Rectal temperature (° C.)” value was 38.1 ± 0.3 °C, the “Respiratory rate (bpm)” value worked out at 28.6 ± 2.5 bpm and the “Ruminal frequency (in 2 min)” value amounted to 2.6 ± 0.3. In addition, in experiment [1] (n=5 each group, mean ± SD), the “Termography BL (° C.)” value stood at 34.3 ± 0.6 °C, the “Termography BR (° C.)” value was 34.2 ± 0.5 °C, the “Termography FL (° C.)” value is 33.8 ± 0.7 °C and the “Termography FR(° C.)” value worked out at 33.7 ± 0.7 °C. Moreover, the “LS-CFU (linear score of CFU in milk)” value in the experiment with S. aureus (day 3 post-challenge (before treatment on day 4)) is reported as −0.7. The “LS-CFU (linear score of CFU in milk)” value with S. aureus (day 8 post-challenge) is listed as −0.7. The “LS-CFU (linear score of CFU in milk)” value with S. aureus (day 9 post-challenge) is listed as −0.7.

Values taken from patent US20220016174A1, “FOETAL MESENCHYMAL STEM CELL COMPOSITION OF ALLOGENIC ORGIN, TREATMENT METHOD AND USE THEREOF IN MASTITIS IN MILK-PRODUCING ANIMALS, INCLUDING CATTLE” (UNIVERSIDAD DE CHILE, priority 2018, published 2022).
